Laboratory results reported in ChEMBL document CHEMBL6078688, “Discovery of Novel MyD88 Inhibitor A5S to Alleviate Acute Lung Injury with Favorable Drug-like Properties” (J Med Chem, 2024).
Activity calls are given as the source filed them. The rule behind the calls is not given here.

Legend:
[1] = target: TLR4-MyD88 (Mus musculus) (UniProt Q9QUK6+P22366); test: Inhibition of MYD88/TLR4 protein-protein interaction in LPS-induced mouse J774.A1 cells at 20 uM incubated for 2 hrs by coimmunoprecipitation analysis; type: cell-based
Chain of TLR4-MyD88 (Mus musculus) (P22366 whole entry, looked up): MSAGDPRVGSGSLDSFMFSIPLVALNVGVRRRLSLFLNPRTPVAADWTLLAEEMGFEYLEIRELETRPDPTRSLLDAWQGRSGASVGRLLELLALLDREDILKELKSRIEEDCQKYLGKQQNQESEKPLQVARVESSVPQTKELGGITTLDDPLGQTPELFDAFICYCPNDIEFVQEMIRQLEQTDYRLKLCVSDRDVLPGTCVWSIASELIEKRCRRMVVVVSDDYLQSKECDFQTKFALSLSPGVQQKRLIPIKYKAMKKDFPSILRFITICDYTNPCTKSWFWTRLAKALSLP
Chain of TLR4-MyD88 (Mus musculus) (Q9QUK6 whole entry, looked up): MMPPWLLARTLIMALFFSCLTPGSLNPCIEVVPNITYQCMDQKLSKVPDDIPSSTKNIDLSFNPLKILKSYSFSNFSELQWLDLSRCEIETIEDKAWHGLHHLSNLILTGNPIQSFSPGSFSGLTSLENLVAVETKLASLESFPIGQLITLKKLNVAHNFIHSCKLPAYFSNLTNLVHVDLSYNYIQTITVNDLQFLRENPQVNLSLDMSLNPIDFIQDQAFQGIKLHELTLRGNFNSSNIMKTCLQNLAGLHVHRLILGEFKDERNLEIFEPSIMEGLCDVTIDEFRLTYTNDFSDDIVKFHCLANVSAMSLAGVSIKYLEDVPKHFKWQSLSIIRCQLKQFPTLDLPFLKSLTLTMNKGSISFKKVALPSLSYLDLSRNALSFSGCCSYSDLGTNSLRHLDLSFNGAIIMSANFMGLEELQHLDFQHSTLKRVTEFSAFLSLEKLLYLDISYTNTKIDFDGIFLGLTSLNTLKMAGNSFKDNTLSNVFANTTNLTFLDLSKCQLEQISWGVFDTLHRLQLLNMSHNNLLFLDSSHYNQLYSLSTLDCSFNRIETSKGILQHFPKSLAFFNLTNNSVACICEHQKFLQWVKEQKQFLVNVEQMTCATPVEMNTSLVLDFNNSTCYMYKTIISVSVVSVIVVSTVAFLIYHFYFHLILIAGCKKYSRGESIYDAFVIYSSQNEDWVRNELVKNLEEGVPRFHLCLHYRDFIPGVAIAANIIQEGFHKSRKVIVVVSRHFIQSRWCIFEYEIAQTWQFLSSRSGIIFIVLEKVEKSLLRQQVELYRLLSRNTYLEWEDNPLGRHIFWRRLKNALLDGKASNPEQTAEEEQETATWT

[2] = tested on: J774.A1; test: Anti-inflammatory activity in LPS-induced mouse J774.A1 cells assessed as inhibition of IL-6 production by ELISA; type: functional, cell-based
[3] = tested on: J774.A1; test: Inhibition of NF-kappaB signalling pathway in LPS-induced mouse J774.A1 cells assessed as upregulation of IkappaB-alpha expression by Western blotting analysis; type: cell-based
[4] = target: Toll-like receptor 4/Ly96 (Mus musculus) (UniProt Q9QUK6+Q9JHF9); test: Inhibition of MD2/TLR4 protein-protein interaction in LPS-induced mouse J774.A1 cells at 20 uM incubated for 2 hrs by coimmunoprecipitation analysis; type: cell-based
[5] = tested on: J774.A1; test: Inhibition of NF-kappaB signalling pathway in LPS-induced mouse J774.A1 cells assessed as downregulation of p65 phosphorylation by Western blotting analysis; type: cell-based
[6] = tested on: J774.A1; test: Anti-inflammatory activity in LPS-induced mouse J774.A1 cells assessed as inhibition of TNF-alpha production by ELISA; type: functional, cell-based
[7] = tested on: J774.A1; test: Cytotoxicity against mouse J774.A1 cells at 3 to 12 uM by MTT assay; type: toxicity, cell-based; conditions: j774.a1, 12 µM, dose 3-12 µM
[8] = tested on: J774.A1; test: Cytotoxicity against mouse J774.A1 cells at 10 uM by MTT assay; type: toxicity, cell-based; conditions: j774.a1, 10 µM
[9] = tested on: THP-1; test: Anti-inflammatory activity in LPS-induced human THP-1 cells assessed as inhibition of IL-6 production at 10 uM by ELISA relative to control; type: functional
[10] = tested on: Peritoneal macrophage; test: Antiinflammatory activity in LPS-induced mouse Peritoneal macrophage cells assessed as inhibition of IFN-beta mRNA level at 1.25 to 5 uM by RT-PCR analysis; type: functional, cell-based; conditions: dose 1.25-5 µM
[11] = target: Myeloid differentiation primary response protein MyD88 (Homo sapiens, UniProt Q99836); test: Binding affinity to MYD88 (unknown origin) assessed as dissociation constant by biolayer interferometry
Chain of Myeloid differentiation primary response protein MyD88 (Q99836 whole entry): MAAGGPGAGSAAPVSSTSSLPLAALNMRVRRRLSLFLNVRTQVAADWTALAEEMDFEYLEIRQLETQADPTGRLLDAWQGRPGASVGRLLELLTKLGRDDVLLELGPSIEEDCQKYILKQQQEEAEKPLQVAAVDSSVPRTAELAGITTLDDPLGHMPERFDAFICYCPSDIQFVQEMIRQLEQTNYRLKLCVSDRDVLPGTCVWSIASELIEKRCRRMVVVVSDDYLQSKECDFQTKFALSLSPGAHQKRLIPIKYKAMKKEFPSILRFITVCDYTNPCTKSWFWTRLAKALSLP

[12] = tested on: J774.A1; test: Anti-inflammatory activity in LPS-induced mouse J774.A1 cells assessed as inhibition of IL-6 production at 10 uM by ELISA; type: functional, cell-based
[13] = tested on: J774.A1; test: Anti-inflammatory activity in LPS-induced mouse J774.A1 cells assessed as inhibition of TNF-alpha production at 10 uM by ELISA; type: functional, cell-based
[14] = Cmax in Sprague-Dawley rat at 50 mg/kg,po administration measured upto 24 hrs by LC-MS/MS analysis; type: ADME, organism-based; conditions: in vivo
[15] = AUC (0 to t) in Sprague-Dawley rat at 50 mg/kg,po administration measured upto 24 hrs by LC-MS/MS analysis; type: ADME, organism-based; conditions: in vivo
[16] = Stability of compound in enzyme free simulated gastric fluid measured upto 12 hrs; type: physicochemical; conditions: simulated gi fluid
[17] = Cmax in Sprague-Dawley rat at 1 mg/kg,iv administration measured upto 24 hrs by LC-MS/MS analysis; type: ADME, organism-based; conditions: in vivo
[18] = Tmax in Sprague-Dawley rat at 1 mg/kg,iv administration measured upto 24 hrs by LC-MS/MS analysis; type: ADME, organism-based; conditions: in vivo
[19] = Stability of compound in simulated intestinal fluid measured upto 12 hrs; type: physicochemical; conditions: simulated gi fluid
[20] = Tmax in Sprague-Dawley rat at 50 mg/kg,po administration measured upto 24 hrs by LC-MS/MS analysis; type: ADME, organism-based; conditions: in vivo
[21] = Stability of compound in simulated gastric fluid measured upto 12 hrs; type: physicochemical; conditions: simulated gi fluid
[22] = Stability of compound in enzyme free simulated intestinal fluid measured upto 12 hrs; type: physicochemical; conditions: simulated gi fluid
[23] = AUC (0 to infinity) in Sprague-Dawley rat at 1 mg/kg,iv administration measured upto 24 hrs by LC-MS/MS analysis; type: ADME, organism-based; conditions: in vivo
[24] = Stability of compound in rat serum measured after 6 hrs; type: ADME, cell-free
[25] = Half life in Sprague-Dawley rat at 1 mg/kg,iv administration measured upto 24 hrs by LC-MS/MS analysis; type: ADME, organism-based; conditions: in vivo
[26] = AUC (0 to t) in Sprague-Dawley rat at 1 mg/kg,iv administration measured upto 24 hrs by LC-MS/MS analysis; type: ADME, organism-based; conditions: in vivo
[27] = Oral bioavailability in Sprague-Dawley rat at 50 mg/kg administration measured upto 24 hrs by LC-MS/MS analysis; type: ADME, organism-based; conditions: in vivo
[28] = Drug concentration in Sprague-Dawley rat serum at 15 mg/kg,iv administration measured upto 24 hrs by LC-MS/MS analysis; type: ADME, organism-based; conditions: read-out: Ct
[29] = tested on: Mus musculus; test: Antiinflammatory activity against LPS induced acute lung injury C57BL/6 mouse model assessed as reduction in histopathological change in lung at 20 mg/kg,po administrated with compound for 30 mins followed by LPS treatment and measured after 6 hrs by H and E staining based analysis; type: functional, organism-based; conditions: time 6.5 hrs
[30] = tested on: Mus musculus; test: Antiinflammatory activity against LPS induced acute lung injury C57BL/6 mouse model assessed as reduction in of leukocytes in alveolar region at 20 mg/kg,po administrated with compound for 30 mins followed by LPS treatment and measured after 6 hrs by immunohistochemical staining based analysis; type: functional, organism-based

| SMILES | Activity [8] | inhibition at 10 µM [9] [%] | other results |
| --- | --- | --- | --- |
| O[C@@H](COc1ccc(Br)cc1)CN1CCN(Cc2cc3ccccc3[nH]2)CC1 |  |  | inhibition [1]: Active; IC50 [2]: 0.82 µM; inhibition [3]: Active; inhibition [4]: inactive; inhibition [5]: Active; IC50 [6]: 3.75 µM; Activity [7]: Non-toxic |
| CC(c1ccccc1)C(O)CN1CCN(CC(O)COCc2ccccc2)CC1 (stereo not given) | Non-toxic | 20 |  |
| CC(c1cccc(F)c1)C(O)CN1CCN(CC(O)COc2ccc(C(C)(C)C)cc2)CC1 (stereo not given) | Non-toxic | 44.3 |  |
| COc1ccc(OCC(O)CN2CCN(CC(O)C(C)c3ccccc3)CC2)cc1 (stereo not given) | Non-toxic | 46.8 |  |
| CC(c1cccc(F)c1)C(O)CN1CCN(CC(O)COc2ccc(Cl)cc2)CC1 (stereo not given) | Non-toxic | 55.5 |  |
| COc1ccc(C(=O)/C=C/c2cccc(OC)c2OC)cc1 |  |  | Activity [10]: Active |
| OC(COCc1ccccc1)CN1CCN(Cc2cc3ccccc3[nH]2)CC1 (stereo not given) | Non-toxic | 72.7 |  |
| CC(c1cccc(F)c1)C(O)CN1CCN(CC(O)COc2ccccc2)CC1 (stereo not given) | Non-toxic | 31.8 |  |
| OC(COc1ccc(Br)cc1)CN1CCN(Cc2cc3ccccc3[nH]2)CC1 (stereo not given) | Non-toxic | 84.2 | Kd [11]: 84.8 µM |
| CC(c1cccc(F)c1)C(O)CN1CCN(CC(O)COCc2ccccc2)CC1 (stereo not given) | Non-toxic | 30.4 |  |
| Cc1ccccc1OCC(O)CN1CCN(Cc2cc3ccccc3[nH]2)CC1 (stereo not given) | Non-toxic | 75.4 |  |
| OC(COc1ccccc1)CN1CCN(Cc2cc3ccccc3[nH]2)CC1 (stereo not given) | Non-toxic | 74 |  |
| COc1ccc(OCC(O)CN2CCN(Cc3cc4ccccc4[nH]3)CC2)cc1 (stereo not given) | Non-toxic | 69 |  |
| Cc1c(CN2CCN(C3CCNC3)CC2)[nH]c2ccc(F)cc12 (stereo not given) | Non-toxic | 71.7 | Kd [11]: 276 µM; inhibition [12]: Active; inhibition [13]: Active |
| OC(COc1ccc(F)cc1)CN1CCN(Cc2cc3ccccc3[nH]2)CC1 (stereo not given) | Non-toxic | 76.3 |  |
| CC(c1ccccc1)C(O)CN1CCN(CC(O)COc2ccccc2)CC1 (stereo not given) | Non-toxic | 30.5 |  |
| Cc1ccccc1OCC(O)CN1CCN(CC(O)C(C)c2cccc(F)c2)CC1 (stereo not given) | Non-toxic | 46.2 |  |

| SMILES | Activity [8] | inhibition at 10 µM [9] [%] | other results |
| --- | --- | --- | --- |
| COc1ccccc1OCC(O)CN1CCN(Cc2cc3ccccc3[nH]2)CC1 (stereo not given) | Non-toxic | 62.6 |  |
| COc1ccc(-c2csc(NC(=O)CCN3CCN(Cc4cccc([N+](=O)[O-])c4)CC3)n2)cc1OC |  |  | Cmax [14]: 3.99 ng/mL; AUC(0-t) at 24 h [15]: 4.38 ng·h/mL; Stability [16]: Stable; Cmax [17]: 297 ng/mL; Tmax [18]: 4.8 min; Stability [19]: Stable; Tmax [20]: 15 min; Stability [21]: Stable; Stability [22]: Stable; AUC(0-inf) [23]: 79.9 ng·h/mL; Stability [24]: Unstable; half-life [25]: 4.8 min; AUC(0-t) at 24 h [26]: 79.1 ng·h/mL; bioavailability [27]: 0.13% |
| CC(c1ccccc1)C(O)CN1CCN(CC(O)COc2ccc(F)cc2)CC1 (stereo not given) | Non-toxic | 4.5 |  |
| COc1ccccc1OCC(O)CN1CCN(CC(O)C(C)c2cccc(F)c2)CC1 (stereo not given) | Non-toxic | 52.8 |  |
| COc1ccc(OCC(O)CN2CCN(CC(O)C(C)c3cccc(F)c3)CC2)cc1 (stereo not given) | Non-toxic | 37.8 |  |
| CC(c1ccccc1)C(O)CN1CCN(CC(O)COc2ccc(Cl)cc2)CC1 (stereo not given) | Non-toxic | 14 |  |
| CC(c1cccc(F)c1)C(O)CN1CCN(CC(O)COc2ccc(F)cc2)CC1 (stereo not given) | Non-toxic | 42.1 |  |
| CC(c1cccc(F)c1)C(O)CN1CCN(CC(O)COc2ccc(Br)cc2)CC1 (stereo not given) | Non-toxic | 43.1 |  |
| O=C(CCN1CCN(Cc2ccccc2)CC1)Nc1nc(-c2ccccc2)cs1 |  |  | concentration at 24 h [28]: 1190 ng/mL |
| OC(COc1ccc(Cl)cc1)CN1CCN(Cc2cc3ccccc3[nH]2)CC1 (stereo not given) | Non-toxic | 85.3 |  |
| CC(c1ccccc1)C(O)CN1CCN(CC(O)COc2ccc(Br)cc2)CC1 (stereo not given) | Non-toxic | 47.9 |  |
| COc1ccccc1OCC(O)CN1CCN(CC(O)C(C)c2ccccc2)CC1 (stereo not given) | Non-toxic | 27.8 |  |
| CC(c1ccccc1)C(O)CN1CCN(CC(O)COc2ccc(C(C)(C)C)cc2)CC1 (stereo not given) | Toxic | 46.4 |  |
| Cc1ccccc1OCC(O)CN1CCN(CC(O)C(C)c2ccccc2)CC1 (stereo not given) | Non-toxic | 21.5 |  |
| C[C@@H]1C[C@H]2[C@@H]3CCC4=CC(=O)C=C[C@]4(C)[C@@]3(F)[C@@H](O)C[C@]2(C)[C@@]1(O)C(=O)CO |  |  | Activity [29]: Active; Activity [30]: Active |
| CC(C)(C)c1ccc(OCC(O)CN2CCN(Cc3cc4ccccc4[nH]3)CC2)cc1 (stereo not given) | Toxic | 5.83 |  |
